Measured values published in patent publication US9649309B2 (priority 2014, dated 2017).

Key:
[1] = target: Tyro3 (Homo sapiens (Human), UniProt Q06418); conditions: read-out: IC50 Tyro3
[2] = target: Axl (Homo sapiens (Human), UniProt P30530); conditions: read-out: IC50 Axl
Chain of Axl (P30530 26-894 limits assumed): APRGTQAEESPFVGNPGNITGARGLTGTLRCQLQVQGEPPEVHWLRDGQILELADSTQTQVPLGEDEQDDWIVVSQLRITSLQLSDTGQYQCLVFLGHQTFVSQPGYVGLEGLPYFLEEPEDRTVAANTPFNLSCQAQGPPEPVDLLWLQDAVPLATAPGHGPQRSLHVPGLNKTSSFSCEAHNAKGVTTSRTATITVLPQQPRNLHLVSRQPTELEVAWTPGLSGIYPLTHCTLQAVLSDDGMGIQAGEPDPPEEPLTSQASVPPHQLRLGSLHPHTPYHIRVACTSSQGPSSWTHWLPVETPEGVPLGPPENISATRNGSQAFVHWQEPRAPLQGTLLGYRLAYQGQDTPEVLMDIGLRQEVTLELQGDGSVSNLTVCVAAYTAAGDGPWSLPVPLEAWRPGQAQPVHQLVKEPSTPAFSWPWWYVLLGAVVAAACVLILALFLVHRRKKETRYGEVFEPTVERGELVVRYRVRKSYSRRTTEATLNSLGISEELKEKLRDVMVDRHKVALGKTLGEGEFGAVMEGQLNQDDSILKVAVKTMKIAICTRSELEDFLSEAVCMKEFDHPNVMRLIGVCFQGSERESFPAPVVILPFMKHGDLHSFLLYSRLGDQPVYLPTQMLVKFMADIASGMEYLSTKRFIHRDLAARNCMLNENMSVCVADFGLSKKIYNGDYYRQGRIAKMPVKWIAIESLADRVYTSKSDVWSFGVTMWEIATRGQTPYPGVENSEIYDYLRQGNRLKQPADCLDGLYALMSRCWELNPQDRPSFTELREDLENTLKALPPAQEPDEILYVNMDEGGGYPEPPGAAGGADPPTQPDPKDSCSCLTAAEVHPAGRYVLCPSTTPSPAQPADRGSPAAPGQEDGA

Chain of Tyro3 (Q06418 41-890 limits assumed): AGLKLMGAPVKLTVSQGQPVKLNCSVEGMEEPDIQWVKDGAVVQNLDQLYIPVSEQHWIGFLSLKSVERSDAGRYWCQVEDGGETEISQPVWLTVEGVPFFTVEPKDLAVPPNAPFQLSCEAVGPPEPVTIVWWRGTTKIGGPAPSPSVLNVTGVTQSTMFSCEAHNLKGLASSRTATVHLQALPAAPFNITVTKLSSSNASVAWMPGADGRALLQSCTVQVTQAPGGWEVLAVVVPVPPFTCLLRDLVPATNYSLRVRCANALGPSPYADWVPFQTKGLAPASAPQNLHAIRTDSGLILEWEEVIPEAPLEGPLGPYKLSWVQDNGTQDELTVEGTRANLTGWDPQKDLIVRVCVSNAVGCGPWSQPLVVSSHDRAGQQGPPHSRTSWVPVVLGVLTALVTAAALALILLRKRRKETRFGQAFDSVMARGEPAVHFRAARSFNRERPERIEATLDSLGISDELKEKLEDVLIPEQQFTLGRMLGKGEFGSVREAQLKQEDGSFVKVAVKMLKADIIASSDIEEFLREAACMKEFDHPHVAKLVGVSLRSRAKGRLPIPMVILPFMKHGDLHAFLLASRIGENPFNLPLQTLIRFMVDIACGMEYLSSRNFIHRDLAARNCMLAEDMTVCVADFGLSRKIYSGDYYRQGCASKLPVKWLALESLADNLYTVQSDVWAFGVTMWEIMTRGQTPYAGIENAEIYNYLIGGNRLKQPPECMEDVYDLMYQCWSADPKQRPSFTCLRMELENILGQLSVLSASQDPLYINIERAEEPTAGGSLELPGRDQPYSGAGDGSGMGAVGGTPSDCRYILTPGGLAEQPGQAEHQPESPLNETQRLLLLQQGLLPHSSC

Compound | IC50 [1] [nM] | IC50 [2] [nM]
CCCCNc1ncc(-c2cncc(N3CCCC3)n2)c(N[C@H]2CC[C@H](O)CC2)n1 [UNC3115A] | 415 | 642
CCCCNc1ncc(-c2cc(Nc3cccc([N+](=O)[O-])c3)ncn2)c(N[C@H]2CC[C@H](O)CC2)n1 [UNC4322A] | 889 | 30000
CCCCNc1ncc(-c2nc(CO)cs2)c(N[C@H]2CC[C@H](O)CC2)n1 [UNC3135A] | 165 | 304
CCCCNc1ncc(-c2nccnc2N)c(N[C@H]2CC[C@H](O)CC2)n1 [UNC3119A] | 9620 | 30000
CCCCNc1ncc(C(=O)NCc2ccc(-c3ccc(C#N)cc3)nc2)c(N[C@H]2CC[C@H](O)CC2)n1 [UNC4239A] | 305 | 977
CCCCNc1ncc(C(=O)NCC2CCN(c3ccccc3)CC2)c(N[C@H]2CC[C@H](O)CC2)n1 [UNC4304A] | 333 | 664
CCCCNc1ncc(C(=O)NCC2CCN(C(C)=O)CC2)c(N[C@H]2CC[C@H](O)CC2)n1 [UNC4288A] | 262 | 1050
CCCCNc1ncc(C(=O)NCc2ccc(-n3cnc(-c4ccccc4)c3)cc2)c(N[C@H]2CC[C@H](O)CC2)n1 [UNC2969A] | 1060 | 667
CCCCNc1ncc(-c2ccc(C3=CCC(CN(C)C)CC3)cn2)c(N[C@H]2CC[C@H](O)CC2)n1 (stereo partly drawn) [UNC4387A] | 488 | 320
CCCCNc1ncc(C(=O)NCc2ccc(-c3c(C)noc3C)nc2)c(N[C@H]2CC[C@H](O)CC2)n1 [UNC4260A] | 256 | 602
CCCCNc1ncc(C(=O)NCc2ccc(-n3ccnc3-c3ccccc3)cc2)c(N[C@H]2CC[C@H](O)CC2)n1 [UNC2957A] | 975 | 593
CCCCNc1ncc(C(=O)NCc2ccc(C3=CCCCC3)nc2)c(N[C@H]2CC[C@H](O)CC2)n1 [UNC4256A] | 340 | 743
CCCCNc1ncc(-c2cncc(NC3CCCCC3)n2)c(N[C@H]2CC[C@H](O)CC2)n1 [UNC3137A] | 412 | 1230
CCCCNc1ncc(-c2ncc(C(=O)O)s2)c(N[C@H]2CC[C@H](O)CC2)n1 [UNC3331A] | 95 | 414
CCCCNc1ncc(-c2nc(C(N)=O)cs2)c(N[C@H]2CC[C@H](O)CC2)n1 [UNC3136A] | 76 | 237
CCCCNc1ncc(-c2ncc(C)s2)c(N[C@H]2CC[C@H](O)CC2)n1 [UNC3140A] | 322 | 395
CCCCNc1ncc(-c2ccc(N3CCN(C(=O)OC(C)(C)C)CC3)nn2)c(N[C@H]2CC[C@H](O)CC2)n1 [UNC3071A] | 298 | 275
CCCCNc1ncc(C(=O)NCc2ccc(Cn3ccnc3)cc2)c(N[C@H]2CC[C@H](O)CC2)n1 [UNC3144A] | 360 | 487
CCCCNc1ncc(C(=O)NCc2ccc3ccccc3n2)c(N[C@H]2CC[C@H](O)CC2)n1 [UNC4286A] | 253 | 572
CCCCNc1ncc(-c2cc(O)c(CN3CCCC3)cn2)c(N[C@H]2CC[C@H](O)CC2)n1 [UNC4230A] | 734 | 1760
CCCCNc1ncc(-c2ccc(C3=CCN(C(C)C)CC3)cn2)c(N[C@H]2CC[C@H](O)CC2)n1 [UNC4358A] | 42 | 24
CCCCNc1ncc(-c2cc(NC3CCCCCC3)ncn2)c(N[C@H]2CC[C@H](O)CC2)n1 [UNC4261A] | 380 | 579
CCCC1(Nc2ncc(-c3ccc(CN4CCN(C)CC4)cn3)c(NC3CCC(O)CC3)n2)CC1 (stereo not drawn) [UNC3668A] | 409 | 5300
CCCCNc1ncc(-c2cc(SC)nc(C)n2)c(N[C@H]2CC[C@H](O)CC2)n1 [UNC3130A] | 384 | 1090
CCCCNc1ncc(-c2ccc(CNC3CC4CCC(C3)N4C)cn2)c(N[C@H]2CC[C@H](O)CC2)n1 (stereo partly drawn) [UNC4163A] | 8.7 | 20
CCCCNc1ncc(-c2ccc(C=O)o2)c(N[C@H]2CC[C@H](O)CC2)n1 [UNC2902A, 5-(2-(Butylamino)-4-((trans-4-hydroxycyclohexyl)amino)pyrimidin-5-yl)furan-2-carbaldehyde] | 241 | 1630
CCCCNc1ncc(-c2cnc(N)c(OC)n2)c(N[C@H]2CC[C@H](O)CC2)n1 [UNC3043A] | 1640 | 2310

Continued, values first:

IC50 [1] [nM] | IC50 [2] [nM] | Compound
53 | 53 | CCCCNc1ncc(-c2ccc(CC3CCNC3)cn2)c(N[C@H]2CC[C@H](O)CC2)n1 (stereo partly drawn) [UNC4386A, trans-4-((2-(butylamino)-5-(5-(pyrrolidin-3-ylmethyl)pyridin-2-yl)pyrimidin-4-yl)amino)cyclohexan-1-ol]
77 | 255 | CCCCNc1ncc(-c2cc(NCC)ncn2)c(N[C@H]2CC[C@H](O)CC2)n1 [UNC3113A]
195 | 470 | CCCCNc1ncc(C(=O)NCc2ccc(-c3ccccc3)nc2)c(N[C@H]2CC[C@H](O)CC2)n1 [UNC4234A]
123 | 408 | CCCCNc1ncc(C(=O)NC2CCN(Cc3cccnc3)CC2)c(N[C@H]2CC[C@H](O)CC2)n1 [UNC2802A]
157 | 597 | CCCCNc1ncc(-c2nccs2)c(N[C@H]2CC[C@H](O)CC2)n1 [UNC3047A]
200 | 136 | CCCCNc1ncc(C(=O)NCc2ccc(-n3cnc(C)c3)cc2)c(N[C@H]2CC[C@H](O)CC2)n1 [UNC2956A]
130 | 314 | CCCCNc1ncc(C(=O)NC2CCN(CCc3ccccc3)CC2)c(N[C@H]2CC[C@H](O)CC2)n1 [UNC2800A]
19 | 32 | CCCCNc1ncc(-c2ccc(CN3C[C@@H]4C[C@H]3CN4)cn2)c(NC2CCC(O)CC2)n1 (stereo partly drawn) [UNC4112A]
42 | 67 | CCCCNc1ncc(-c2ccc(CCN3CCCN(C)CC3)cn2)c(N[C@H]2CC[C@H](O)CC2)n1 [UNC4279A]
230 | 245 | CCCCNc1ncc(C(=O)NC2CCN(CC3CCCCC3)CC2)c(N[C@H]2CC[C@H](O)CC2)n1 [UNC2877A]
98 | 266 | CCCCNc1ncc(C(=O)Nc2ccc(CCN3CCN(C)CC3)cc2)c(N[C@H]2CC[C@H](O)CC2)n1 [UNC2806A]
121 | 158 | CCCCNc1ncc(-c2cc(Nc3cccc(OC)c3)ncn2)c(N[C@H]2CC[C@H](O)CC2)n1 [UNC4270A]
16 | 39 | CCCCNc1ncc(-c2cc(Cl)c(CN3CCCC3)cn2)c(N[C@H]2CC[C@H](O)CC2)n1 [UNC4222A]
109 | 364 | CCCCNc1ncc(-c2cc(NC)ncn2)c(N[C@H]2CC[C@H](O)CC2)n1 [UNC3126A]
24 | 43 | O[C@H]1CC[C@H](Nc2nc(NCCC3CC3)ncc2-c2ccc(CN3CCCC3)cn2)CC1 [UNC4197A]
92 | 216 | CCCCNc1ncc(C(=O)NCc2ccc(-c3cccnc3)nc2)c(N[C@H]2CC[C@H](O)CC2)n1 [UNC4236A]
18 | 93 | CCCCNc1ncc(-c2ccc(C3(N4CCOCC4)CC3)cn2)c(NC2CCC(O)CC2)n1 (stereo not drawn) [UNC3664A]
9.4 | 13 | CCCCNc1ncc(-c2ccc(CNC34CC5CC(CC(C5)C3)C4)cn2)c(N[C@H]2CC[C@H](O)CC2)n1 [UNC4166A]
